Measurements: patent US6737383B1, “Herbicidal oxadiazolidines” (priority 1999, dated 2004)

Experiments:
bedstraw = test: Test B pre/postemergence bedstraw; format: in vivo, Galium aparine
Outline: (§1)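 Response is a visual 0-to-10 score relative to untreated plants, where 0 means no effect and 10 means complete control, taken twelve to sixteen days after application. Treatments went onto soil at planting and onto foliage of 1- to 4-leaf plants, using a surfactant-containing non-phytotoxic solvent.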

blackgrass = test: Test B pre/postemergence blackgrass; format: in vivo, Alopecurus myosuroides
Outline: as §1

surinam grass = test: Test B pre/postemergence surinam grass; format: in vivo, Brachiaria decumbens
Outline: as §1

cocklebur = test: Test B pre/postemergence cocklebur; format: in vivo, Xanthium strumarium
Outline: as §1

corn = test: Test B pre/postemergence corn; format: in vivo, Zea mays
Outline: as §1

crabgrass = test: Test B pre/postemergence crabgrass; format: in vivo, Digitaria sanguinalis
Outline: as §1

giant foxtail = test: Test B pre/postemergence giant foxtail; format: in vivo, Setaria faberii
Outline: as §1

morningglory = test: Test B pre/postemergence morningglory; format: in vivo, Ipomoea hederacea
Outline: as §1

pigweed = test: Test B pre/postemergence pigweed; format: in vivo, Amaranthus retroflexus
Outline: as §1

soybean = test: Test B pre/postemergence soybean; format: in vivo, Glycine max
Outline: as §1

velvetleaf = test: Test B pre/postemergence velvetleaf; format: in vivo, Abutilon theophrasti
Outline: as §1

wheat = test: Test B pre/postemergence wheat; format: in vivo, Triticum aestivum
Outline: as §1

wild oat = test: Test B pre/postemergence wild oat; format: in vivo, Avena fatua
Outline: as §1

rice = test: Test B flood test rice; format: in vivo, Oryza sativa
Outline: (§2)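 Plants were grown to the 2-leaf stage before treatment with test chemical, then held in a greenhouse for twelve to sixteen days. Injury was visually rated against untreated controls on a 0–10 scale, where 0 is no effect and 10 is complete control.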

smallflower flatsedge = test: Test B flood test smallflower flatsedge; format: in vivo, Cyperus difformis
Outline: as §2

bamyardgrass = test: Test B flood test barnyardgrass; format: in vivo, Echinochloa crus-galli
Outline: as §2

[1] = Postemergence, Rate 62 g/ha, scale 0 to 10, 0 is no effect, 10 is complete control
[2] = Postemergence, Rate 125 g/ha, scale of 0 to 10 where 0 is no effect and 10 is complete control
[3] = Postemergence, Rate 250 g/ha, scale of 0 to 10, 0 is no effect, 10 is complete control
[4] = Preemergence, Rate 125 g/ha, scale of 0 to 10 where 0 is no effect and 10 is complete control
[5] = Postemergence, Rate 500 g/ha, scale of 0 to 10 where 0 is no effect and 10 is complete control
[6] = Preemergence, Rate 62 g/ha, scale of 0 to 10 where 0 is no effect and 10 is complete control
[7] = Preemergence, Rate 250 g/ha, scale 0 to 10 (0 no effect, 10 complete control)
[8] = Preemergence, Rate 500 g/ha, scale of 0 to 10 where 0 is no effect and 10 is complete control
[9] = Rate 62 g/ha, flood test species, Pre-emergence, visual evaluation after twelve to sixteen days
[10] = Rate 125 g/ha, under heading Pre-emergence, flood test species, visual evaluation after twelve to sixteen days
[11] = Rate 250 g/ha, Pre-emergence (flood test species), scale 0 to 10, 0 is no effect, 10 is complete control
[12] = Rate 500 g/ha, Pre-emergence section of Table B, 0 to 10 scale (0 no effect, 10 complete control)

## C=C(Cl)Cn1c(=O)on(C(=O)N(c2ccc(F)cc2F)C(C)C)c1=O [Compound 634]
bedstraw; [1]
  Plant response rating, Bedstraw: 0
bedstraw; [2]
  Plant response rating, Bedstraw: 0
bedstraw; [3]
  Bedstraw plant response rating: 0
bedstraw; [4]
  Bedstraw plant response rating: 0
blackgrass; [1]
  Plant response rating, Blackgrass: 2
blackgrass; [2]
  Plant response rating, Blackgrass: 6
blackgrass; [3]
  Blackgrass plant response rating: 8
blackgrass; [5]
  Plant response rating, Blackgrass: 8
blackgrass; [6]
  Blackgrass plant response rating: 4
blackgrass; [4]
  Blackgrass plant response rating: 6
blackgrass; [7]
  Plant response rating, Blackgrass: 8
blackgrass; [8]
  Plant response rating, Blackgrass: 9
Surinam grass; [1]
  Plant response rating, B. signalgrass: 0
Surinam grass; [2]
  Plant response rating, B. signalgrass: 0
Surinam grass; [3]
  B. signalgrass plant response rating: 0
Surinam grass; [5]
  Plant response rating, B. signalgrass: 5
Surinam grass; [6]
  B. signalgrass plant response rating: 1
Surinam grass; [4]
  B. signalgrass plant response rating: 5
Surinam grass; [7]
  Plant response rating, B. signalgrass: 7
Surinam grass; [8]
  Plant response rating, B. signalgrass: 10
cocklebur; [1]
  Plant response rating, Cocklebur: 1
cocklebur; [2]
  Plant response rating, Cocklebur: 1
cocklebur; [3]
  Cocklebur plant response rating: 2
cocklebur; [5]
  Plant response rating, Cocklebur: 2
cocklebur; [6]
  Cocklebur plant response rating: 0
cocklebur; [4]
  Cocklebur plant response rating: 0
cocklebur; [7]
  Plant response rating, Cocklebur: 0
cocklebur; [8]
  Plant response rating, Cocklebur: 0
corn; [1]
  Plant response rating, Corn: 0
corn; [2]
  Plant response rating, Corn: 0
corn; [3]
  Corn plant response rating: 0
corn; [5]
  Plant response rating, Corn: 0
corn; [6]
  Corn plant response rating: 0
corn; [4]
  Corn plant response rating: 0
corn; [7]
  Plant response rating, Corn: 0
corn; [8]
  Plant response rating, Corn: 0
crabgrass; [1]
  Plant response rating, Crabgrass: 0
crabgrass; [2]
  Plant response rating, Crabgrass: 3
crabgrass; [3]
  Crabgrass plant response rating: 7
crabgrass; [5]
  Plant response rating, Crabgrass: 9
crabgrass; [6]
  Crabgrass plant response rating: 7
crabgrass; [4]
  Crabgrass plant response rating: 8
crabgrass; [7]
  Plant response rating, Crabgrass: 10
crabgrass; [8]
  Plant response rating, Crabgrass: 10
Giant foxtail; [1]
  Plant response rating, Giant foxtail: 4
Giant foxtail; [2]
  Plant response rating, Giant foxtail: 8
Giant foxtail; [3]
  Giant foxtail plant response rating: 9
Giant foxtail; [5]
  Plant response rating, Giant foxtail: 9
Giant foxtail; [6]
  Giant foxtail plant response rating: 9
Giant foxtail; [4]
  Giant foxtail plant response rating: 10
Giant foxtail; [7]
  Plant response rating, Giant foxtail: 10
Giant foxtail; [8]
  Plant response rating, Giant foxtail: 10
morningglory; [1]
  Plant response rating, Morningglory: 1
morningglory; [2]
  Plant response rating, Morningglory: 1
morningglory; [3]
  Morningglory plant response rating: 2
morningglory; [5]
  Plant response rating, Morningglory: 2
morningglory; [6]
  Morningglory plant response rating: 0
morningglory; [4]
  Morningglory plant response rating: 0
morningglory; [7]
  Plant response rating, Morningglory: 0
morningglory; [8]
  Plant response rating, Morningglory: 0
pigweed; [1]
  Plant response rating, Redroot pigweed: 1
pigweed; [2]
  Plant response rating, Redroot pigweed: 2
pigweed; [3]
  Redroot pigweed plant response rating: 2
pigweed; [6]
  Redroot pigweed plant response rating: 0
pigweed; [4]
  Redroot pigweed plant response rating: 4
pigweed; [7]
  Plant response rating, Redroot pigweed: 10
pigweed; [8]
  Plant response rating, Redroot pigweed: 10
soybean; [1]
  Plant response rating, Soybean: 3
soybean; [2]
  Plant response rating, Soybean: 2
soybean; [3]
  Soybean plant response rating: 3
soybean; [6]
  Soybean plant response rating: 0
soybean; [4]
  Soybean plant response rating: 0
soybean; [7]
  Plant response rating, Soybean: 0
soybean; [8]
  Plant response rating, Soybean: 0
velvetleaf; [1]
  Plant response rating, Velvetleaf: 0
velvetleaf; [2]
  Plant response rating, Velvetleaf: 0
velvetleaf; [3]
  Velvetleaf plant response rating: 3
velvetleaf; [6]
  Velvetleaf plant response rating: 0
velvetleaf; [4]
  Velvetleaf plant response rating: 0
velvetleaf; [7]
  Plant response rating, Velvetleaf: 4
velvetleaf; [8]
  Plant response rating, Velvetleaf: 6
wheat; [1]
  Plant response rating, Wheat: 0
wheat; [2]
  Plant response rating, Wheat: 0
wheat; [3]
  Wheat plant response rating: 0
wheat; [6]
  Wheat plant response rating: 0
wheat; [4]
  Wheat plant response rating: 0
wheat; [7]
  Plant response rating, Wheat: 0
wheat; [8]
  Plant response rating, Wheat: 0
Wild oat; [1]
  Plant response rating, Wild oats: 0
Wild oat; [2]
  Plant response rating, Wild oats: 0
Wild oat; [3]
  Wild oats plant response rating: 0
Wild oat; [6]
  Wild oats plant response rating: 2
Wild oat; [4]
  Wild oats plant response rating: 5
Wild oat; [7]
  Plant response rating, Wild oats: 5
Wild oat; [8]
  Plant response rating, Wild oats: 7
rice; [9]
  Plant response rating, Rice (0 to 10 scale, 0 is no effect, 10 is complete control): 0
rice; [10]
  Rice plant response rating (0 to 10 scale, 0 is no effect, 10 is complete control): 0
rice; [11]
  Rice plant response rating: 0
rice; [12]
  Rice plant response rating: 0
Smallflower flatsedge; [9]
  Plant response rating, S. Flatsedge (0 to 10 scale, 0 is no effect, 10 is complete control): 0
Smallflower flatsedge; [10]
  S. Flatsedge plant response rating (0 to 10 scale, 0 is no effect, 10 is complete control): 0
Smallflower flatsedge; [11]
  S. Flatsedge plant response rating: 0
Smallflower flatsedge; [12]
  S. Flatsedge plant response rating: 0
bamyardgrass; [9]
  Plant response rating, Barnyardgrass (0 to 10 scale, 0 is no effect, 10 is complete control): 0
bamyardgrass; [10]
  Barnyardgrass plant response rating (0 to 10 scale, 0 is no effect, 10 is complete control): 0
bamyardgrass; [11]
  Barnyardgrass plant response rating: 0
bamyardgrass; [12]
  Barnyardgrass plant response rating: 0
